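Where inhibition never reached the appropriate level, the endpoint shown equals the highest concentration tested. Otherwise, values were interpolated linearly from a five-concentration, 48-hour dose response in 96-well plates. GI50: concentration for 50% inhibition of growth.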 Active and inactive are the calls of the source. Cut-off read from the data, not from the text of the source: active = GI50 up to about 1.1 µM and inactive = higher.
Key:
Assay in all cases: NCI tumour cell line growth inhibition, 48 h
786-0 = test system: 786-0
A498 = test system: A498
A549 = test system: A549
ACHN = test system: ACHN
CAKI-1 = test system: CAKI-1
CCRF-CEM = test system: CCRF-CEM
COLO 205 = test system: COLO 205
DU-145 = test system: DU-145
EKVX = test system: EKVX
HCC 2998 = test system: HCC 2998
HCT-116 = test system: HCT-116
HCT-15 = test system: HCT-15
HL-60 = test system: HL-60
HOP-62 = test system: HOP-62
HT-29 = test system: HT-29
Hs-578T = test system: Hs-578T
IGROV-1 = test system: IGROV-1
K562 = test system: K562
KM12 = test system: KM12
LOX IMVI = test system: LOX IMVI
M14 = test system: M14
MCF7 = test system: MCF7
MDA-MB-231 = test system: MDA-MB-231
MDA-MB-435 = test system: MDA-MB-435
MDA-N = test system: MDA-N
Malme-3M = test system: Malme-3M
NCI-H226 = test system: NCI-H226
NCI-H23 = test system: NCI-H23
NCI-H460 = test system: NCI-H460
NCI-H522 = test system: NCI-H522
NCI/ADR-RES = test system: NCI/ADR-RES
OVCAR-3 = test system: OVCAR-3
OVCAR-4 = test system: OVCAR-4
OVCAR-5 = test system: OVCAR-5
OVCAR-8 = test system: OVCAR-8
PC-3 = test system: PC-3
RPMI-8226 = test system: RPMI-8226
RXF 393 = test system: RXF 393
SF-268 = test system: SF-268
SF-295 = test system: SF-295
SF-539 = test system: SF-539
SK-MEL-28 = test system: SK-MEL-28
SK-MEL-2 = test system: SK-MEL-2
SK-MEL-5 = test system: SK-MEL-5
SK-OV-3 = test system: SK-OV-3
SN12C = test system: SN12C
SNB-19 = test system: SNB-19
SW-620 = test system: SW-620
T47D = test system: T47D
TK-10 = test system: TK-10
U-251 = test system: U-251
UACC-257 = test system: UACC-257
UACC-62 = test system: UACC-62
UO-31 = test system: UO-31
HOP-92 = test system: HOP-92
MOLT-4 = test system: MOLT-4
SNB-75 = test system: SNB-75
SR = test system: SR

CCOC(=O)Cc1cc(=O)[nH]c(-n2[nH]c(C)c(CCO)c2=O)n1
GI50 (786-0): > 100 µM (inactive)
GI50 (A498): > 100 µM (inactive)
GI50 (A549): > 100 µM (inactive)
GI50 (ACHN): > 100 µM (inactive)
GI50 (CAKI-1): > 100 µM (inactive)
GI50 (CCRF-CEM): > 100 µM (inactive)
GI50 (COLO 205): > 100 µM (inactive)
GI50 (DU-145): > 100 µM (inactive)
GI50 (EKVX): > 100 µM (inactive)
GI50 (HCC 2998): > 100 µM (inactive)
GI50 (HCT-116): > 100 µM (inactive)
GI50 (HCT-15): > 100 µM
GI50 (HL-60): > 100 µM (inactive)
GI50 (HOP-62): > 100 µM (inactive)
GI50 (HT-29): > 100 µM (inactive)
GI50 (Hs-578T): > 100 µM (inactive)
GI50 (IGROV-1): > 100 µM (inactive)
GI50 (K562): > 100 µM (inactive)
GI50 (KM12): > 100 µM (inactive)
GI50 (LOX IMVI): > 100 µM (inactive)
GI50 (M14): > 100 µM (inactive)
GI50 (MCF7): > 100 µM (inactive)
GI50 (MDA-MB-231): > 100 µM (inactive)
GI50 (MDA-MB-435): > 100 µM (inactive)
GI50 (MDA-N): > 100 µM (inactive)
GI50 (Malme-3M): > 100 µM (inactive)
GI50 (NCI-H226): > 100 µM (inactive)
GI50 (NCI-H23): > 100 µM (inactive)
GI50 (NCI-H460): > 100 µM (inactive)
GI50 (NCI-H522): > 100 µM (inactive)
GI50 (NCI/ADR-RES): > 100 µM (inactive)
GI50 (OVCAR-3): > 100 µM (inactive)
GI50 (OVCAR-4): > 100 µM (inactive)
GI50 (OVCAR-5): > 100 µM (inactive)
GI50 (OVCAR-8): > 100 µM (inactive)
GI50 (PC-3): > 100 µM (inactive)
GI50 (RPMI-8226): > 100 µM (inactive)
GI50 (RXF 393): > 100 µM (inactive)
GI50 (SF-268): > 100 µM (inactive)
GI50 (SF-295): > 100 µM (inactive)
GI50 (SF-539): > 100 µM (inactive)
GI50 (SK-MEL-28): > 100 µM (inactive)
GI50 (SK-MEL-2): > 100 µM (inactive)
GI50 (SK-MEL-5): > 100 µM (inactive)
GI50 (SK-OV-3): > 100 µM (inactive)
GI50 (SN12C): > 100 µM (inactive)
GI50 (SNB-19): > 100 µM (inactive)
GI50 (SW-620): > 100 µM (inactive)
GI50 (T47D): > 100 µM (inactive)
GI50 (TK-10): > 100 µM (inactive)
GI50 (U-251): > 100 µM (inactive)
GI50 (UACC-257): > 100 µM (inactive)
GI50 (UACC-62): > 100 µM (inactive)
GI50 (UO-31): > 100 µM (inactive)

CC(C)CCC(=O)c1ccoc1 [PERILLAKETONE]
GI50 (786-0): > 100 µM (inactive)
GI50 (A549): > 100 µM (inactive)
GI50 (ACHN): > 100 µM (inactive)
GI50 (CAKI-1): > 100 µM (inactive)
GI50 (CCRF-CEM): > 100 µM (inactive)
GI50 (COLO 205): > 100 µM (inactive)
GI50 (DU-145): > 100 µM (inactive)
GI50 (EKVX): > 100 µM (inactive)
GI50 (HCC 2998): > 100 µM (inactive)
GI50 (HCT-116): > 100 µM (inactive)
GI50 (HCT-15): > 100 µM
GI50 (HL-60): > 100 µM (inactive)
GI50 (HOP-62): > 100 µM (inactive)
GI50 (HOP-92): > 100 µM (inactive)
GI50 (HT-29): > 100 µM (inactive)
GI50 (Hs-578T): > 100 µM (inactive)
GI50 (IGROV-1): > 100 µM (inactive)
GI50 (K562): > 100 µM (inactive)
GI50 (KM12): > 100 µM (inactive)
GI50 (LOX IMVI): > 100 µM (inactive)
GI50 (M14): > 100 µM (inactive)
GI50 (MCF7): > 100 µM (inactive)
GI50 (MDA-MB-231): > 100 µM (inactive)
GI50 (MDA-MB-435): > 100 µM (inactive)
GI50 (MDA-N): > 100 µM (inactive)
GI50 (MOLT-4): > 100 µM (inactive)
GI50 (Malme-3M): > 100 µM (inactive)
GI50 (NCI-H226): > 100 µM (inactive)
GI50 (NCI-H23): > 100 µM (inactive)
GI50 (NCI-H460): > 100 µM (inactive)
GI50 (NCI/ADR-RES): > 100 µM (inactive)
GI50 (OVCAR-3): > 100 µM (inactive)
GI50 (OVCAR-4): > 100 µM (inactive)
GI50 (OVCAR-5): > 100 µM (inactive)
GI50 (OVCAR-8): > 100 µM (inactive)
GI50 (PC-3): > 100 µM (inactive)
GI50 (RPMI-8226): > 100 µM (inactive)
GI50 (RXF 393): > 100 µM (inactive)
GI50 (SF-268): > 100 µM (inactive)
GI50 (SF-295): > 100 µM (inactive)
GI50 (SF-539): > 100 µM (inactive)
GI50 (SK-MEL-28): > 100 µM (inactive)
GI50 (SK-MEL-2): > 100 µM (inactive)
GI50 (SK-MEL-5): > 100 µM (inactive)
GI50 (SK-OV-3): > 100 µM (inactive)
GI50 (SN12C): > 100 µM (inactive)
GI50 (SNB-19): > 100 µM (inactive)
GI50 (SNB-75): > 100 µM (inactive)
GI50 (SR): > 100 µM (inactive)
GI50 (SW-620): > 100 µM (inactive)
GI50 (T47D): > 100 µM (inactive)
GI50 (TK-10): > 100 µM (inactive)
GI50 (U-251): > 100 µM (inactive)
GI50 (UACC-257): > 100 µM (inactive)
GI50 (UACC-62): > 100 µM (inactive)
GI50 (UO-31): > 100 µM (inactive)

O=c1[nH]c(=O)n(C2CC(O)C(CO)O2)cc1/N=N/NCCCc1ccccc1 (stereo unspecified)
GI50 (786-0): > 100 µM (inactive)
GI50 (A498): > 100 µM (inactive)
GI50 (A549): > 100 µM (inactive)
GI50 (ACHN): > 100 µM (inactive)
GI50 (CAKI-1): > 100 µM (inactive)
GI50 (CCRF-CEM): > 100 µM (inactive)
GI50 (COLO 205): > 100 µM (inactive)
GI50 (DU-145): > 100 µM (inactive)
GI50 (EKVX): > 100 µM (inactive)
GI50 (HCC 2998): > 100 µM (inactive)
GI50 (HCT-116): > 100 µM (inactive)
GI50 (HCT-15): > 100 µM
GI50 (HL-60): > 100 µM (inactive)
GI50 (HOP-62): > 100 µM (inactive)
GI50 (HOP-92): > 100 µM (inactive)
GI50 (HT-29): > 100 µM (inactive)
GI50 (Hs-578T): > 100 µM (inactive)
GI50 (IGROV-1): > 100 µM (inactive)
GI50 (KM12): > 100 µM (inactive)
GI50 (LOX IMVI): > 100 µM (inactive)
GI50 (M14): > 100 µM (inactive)
GI50 (MCF7): > 100 µM (inactive)
GI50 (MDA-MB-231): > 100 µM (inactive)
GI50 (MDA-MB-435): > 100 µM (inactive)
GI50 (MDA-N): > 100 µM (inactive)
GI50 (MOLT-4): > 100 µM (inactive)
GI50 (Malme-3M): > 100 µM (inactive)
GI50 (NCI-H226): > 100 µM (inactive)
GI50 (NCI-H23): > 100 µM (inactive)
GI50 (NCI-H460): > 100 µM (inactive)
GI50 (NCI/ADR-RES): > 100 µM (inactive)
GI50 (OVCAR-3): > 100 µM (inactive)
GI50 (OVCAR-4): > 100 µM (inactive)
GI50 (OVCAR-5): > 100 µM (inactive)
GI50 (OVCAR-8): > 100 µM (inactive)
GI50 (PC-3): > 100 µM (inactive)
GI50 (RXF 393): > 100 µM (inactive)
GI50 (SF-268): > 100 µM (inactive)
GI50 (SF-295): > 100 µM (inactive)
GI50 (SF-539): > 100 µM (inactive)
GI50 (SK-MEL-28): > 100 µM (inactive)
GI50 (SK-MEL-2): > 100 µM (inactive)
GI50 (SK-MEL-5): > 100 µM (inactive)
GI50 (SK-OV-3): > 100 µM (inactive)
GI50 (SN12C): > 100 µM (inactive)
GI50 (SR): > 100 µM (inactive)
GI50 (T47D): > 100 µM (inactive)
GI50 (TK-10): > 100 µM (inactive)
GI50 (UACC-257): > 100 µM (inactive)
GI50 (UACC-62): > 100 µM (inactive)
GI50 (UO-31): < 0.01 µM (active)
